Tests used:
Assay type in all cases: in vivo
[1] = test system: transplanted Oryza sativa; assay: Test Example 1: effect on crop, application before weed generation in submerged conditions; conditions: Application herbicide amount 320 g/ha; Seventeenth Table
Procedure, shortened: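 Water-diluted emulsion formulation is applied onto flood water (4 cm deep) covering alluvial soil on the day weed seeds are sown, after transplanting 2.5 leaf stage rice. Rates are expressed per hectare. Injury or control is graded 0–5 three weeks later.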

Zea mays = assay: Test Example 4: effect on crop by application to foliage (diluvial soil, plastic box); conditions: for b / c (Zea mays) effect on crop grade: Application herbicide amount 320 g/ha; for b: effect on crop; for c (Zea mays) effect on crop grade: foliage application
Procedure, shortened: (§1)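 Greenhouse plants (25° C. to 30° C., 14 d, diluvial soil) receive a foliar spray of water-diluted emulsifiable formulation at defined g/ha. Grading after 3 weeks uses a six-step herbicidal-ratio scale, with 4 covering 70% to <90% and 1 covering 5% to <20%.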

[2] = test system: Beta vulgaris ssp. vulgaris; assay: as above; conditions: for f / f (Beta vulgaris ssp. vulgaris) effect on crop grade: Application herbicide amount 320 g/ha; for f: effect on crop; for f (Beta vulgaris ssp. vulgaris) effect on crop grade: foliage application
Procedure, shortened: as §1

Glycine max = assay: as above; conditions: for c / d (Glycine max) effect on crop grade: Application herbicide amount 320 g/ha; for c: effect on crop; for d (Glycine max) effect on crop grade: foliage application
Procedure, shortened: as §1

Brassica campestris L. = assay: as above; conditions: for g / g (Brassica campestris L.) effect on crop grade: Application herbicide amount 320 g/ha; for g: effect on crop; for g (Brassica campestris L.) effect on crop grade: foliage application
Procedure, shortened: as §1

Triticum aestivum = assay: as above; conditions: for e / e (Triticum aestivum) effect on crop grade: Application herbicide amount 320 g/ha; for e: effect on crop; for e (Triticum aestivum) effect on crop grade: foliage application
Procedure, shortened: as §1

[3] = test system: directly sowed Oryza sativa; assay: as above; conditions: for d: Application herbicide amount 320 g/ha, effect on crop
Procedure, shortened: as §1

Veronica persica = assay: Test Example 4: herbicidal effect by application to foliage (diluvial soil, plastic box)
Procedure, shortened: as §1

Abutilon theophrasti = assay: as above; conditions: for M / M (Abutilon theophrasti) herbicidal effect grade: Application herbicide amount 320 g/ha; for M (Abutilon theophrasti) herbicidal effect grade: foliage application
Procedure, shortened: as §1

Lolium multiflorum Lam. = assay: as above; conditions: for K / K (Lolium multiflorum Lam.) herbicidal effect grade: Application herbicide amount 320 g/ha; for K (Lolium multiflorum Lam.) herbicidal effect grade: foliage application
Procedure, shortened: as §1

Apera spica-venti. = assay: as above; conditions: for L / L (Apera spica-venti.) herbicidal effect grade: Application herbicide amount 320 g/ha; for L (Apera spica-venti.) herbicidal effect grade: foliage application
Procedure, shortened: as §1

Galium spurium = assay: as above; conditions: for Q / Q (Galium spurium) herbicidal effect grade: Application herbicide amount 320 g/ha; for Q (Galium spurium) herbicidal effect grade: foliage application
Procedure, shortened: as §1

Avena fatua = assay: as above; conditions: for I / I (Avena fatua) herbicidal effect grade: Application herbicide amount 320 g/ha; for I (Avena fatua) herbicidal effect grade: foliage application
Procedure, shortened: as §1

Digitaria ciliaris = assay: as above; conditions: for F / F (Digitaria ciliaris) herbicidal effect grade: Application herbicide amount 320 g/ha; for F (Digitaria ciliaris) herbicidal effect grade: foliage application
Procedure, shortened: as §1

Setaria viridis = assay: as above; conditions: for G / G (Setaria viridis) herbicidal effect grade: Application herbicide amount 320 g/ha; for G (Setaria viridis) herbicidal effect grade: foliage application
Procedure, shortened: as §1

Chenopodium album = assay: as above; conditions: for O / O (Chenopodium album) herbicidal effect grade: Application herbicide amount 320 g/ha; for O (Chenopodium album) herbicidal effect grade: foliage application
Procedure, shortened: as §1

Alopecurus myosuroides = assay: as above; conditions: for J / J (Alopecurus myosuroides) herbicidal effect grade: Application herbicide amount 320 g/ha; for J (Alopecurus myosuroides) herbicidal effect grade: foliage application
Procedure, shortened: as §1

[4] = test system: Echinochloa crus-galli var. crus-galli; assay: as above; conditions: for H / H (Echinochloa crus-galli var. crus-galli) herbicidal effect grade: Application herbicide amount 320 g/ha; for H (Echinochloa crus-galli var. crus-galli) herbicidal effect grade: foliage application
Procedure, shortened: as §1

Stellaria media = assay: as above
Procedure, shortened: as §1

Amaranthus retroflexus = assay: as above; conditions: Application herbicide amount 320 g/ha; foliage application
Procedure, shortened: as §1

[5] = Application herbicide amount 320 g/ha
[6] = Application herbicide amount 320 g/ha, foliage application
[7] = application to foliage, application herbicide amount 320 g/ha

CN(C)c1nnc2c(C(=O)Nc3nnco3)ccc(C(F)(F)F)n12 [1-103]
a: transplanted Oryza sativa (effect on crop grade) [1]: 3 (Herbicidal ratio of 40% or more and less than 70%)
b (Zea mays): 1 (Herbicidal ratio of 5% or more and less than 20%)
f [2]: 5 (Herbicidal ratio of 90% or more (almost completely withered))
c (Glycine max): 2 (Herbicidal ratio of 20% or more and less than 40%)
g (Brassica campestris L.): 5 (Herbicidal ratio of 90% or more (almost completely withered))
e (Triticum aestivum): 3 (Herbicidal ratio of 40% or more and less than 70%)
d [3]: 4 (Herbicidal ratio of 70% or more and less than 90%)
R (Veronica persica; [5]): 5 (Herbicidal ratio of 90% or more (almost completely withered))
M (Abutilon theophrasti): 4 (Herbicidal ratio of 70% or more and less than 90%)
K (Lolium multiflorum Lam.): 3 (Herbicidal ratio of 40% or more and less than 70%)
L (Apera spica-venti.): 3 (Herbicidal ratio of 40% or more and less than 70%)
Q (Galium spurium): 4 (Herbicidal ratio of 70% or more and less than 90%)
I (Avena fatua): 4 (Herbicidal ratio of 70% or more and less than 90%)
F (Digitaria ciliaris): 5 (Herbicidal ratio of 90% or more (almost completely withered))
G (Setaria viridis): 5 (Herbicidal ratio of 90% or more (almost completely withered))
O (Chenopodium album): 5 (Herbicidal ratio of 90% or more (almost completely withered))
J (Alopecurus myosuroides): 2 (Herbicidal ratio of 20% or more and less than 40%)
H [4]: 5 (Herbicidal ratio of 90% or more (almost completely withered))

Cc1nnc(NC(=O)c2ccc(C(F)(F)F)n3c(CC4CC4)nnc23)o1 [1-104]
a: transplanted Oryza sativa (effect on crop grade) [1]: 0 (Herbicidal ratio of 5% or less (almost no effect))
b (Zea mays): 0 (Herbicidal ratio of 5% or less (almost no effect))
f [2]: 4 (Herbicidal ratio of 70% or more and less than 90%)
c (Glycine max): 3 (Herbicidal ratio of 40% or more and less than 70%)
g (Brassica campestris L.): 4 (Herbicidal ratio of 70% or more and less than 90%)
e (Triticum aestivum): 2 (Herbicidal ratio of 20% or more and less than 40%)
d [3]: 4 (Herbicidal ratio of 70% or more and less than 90%)
R (Veronica persica; [5]): 4 (Herbicidal ratio of 70% or more and less than 90%)
M (Abutilon theophrasti): 4 (Herbicidal ratio of 70% or more and less than 90%)
K (Lolium multiflorum Lam.): 1 (Herbicidal ratio of 5% or more and less than 20%)
L (Apera spica-venti.): 2 (Herbicidal ratio of 20% or more and less than 40%)
Q (Galium spurium): 3 (Herbicidal ratio of 40% or more and less than 70%)
I (Avena fatua): 4 (Herbicidal ratio of 70% or more and less than 90%)
F (Digitaria ciliaris): 5 (Herbicidal ratio of 90% or more (almost completely withered))
G (Setaria viridis): 5 (Herbicidal ratio of 90% or more (almost completely withered))
O (Chenopodium album): 5 (Herbicidal ratio of 90% or more (almost completely withered))
J (Alopecurus myosuroides): 1 (Herbicidal ratio of 5% or more and less than 20%)
H [4]: 5 (Herbicidal ratio of 90% or more (almost completely withered))

COCCN(C)c1nnc2c(C(=O)Nc3nnc(C)o3)ccc(C(F)(F)F)n12 [1-129]
a: transplanted Oryza sativa (effect on crop grade) [1]: 1 (Herbicidal ratio of 5% or more and less than 20%)
c (Zea mays) effect on crop grade (Zea mays): 2 (Herbicidal ratio of 20% or more and less than 40%)
f (Beta vulgaris ssp. vulgaris) effect on crop grade [2]: 5 (Herbicidal ratio of 90% or more (almost completely withered))
d (Glycine max) effect on crop grade (Glycine max): 4 (Herbicidal ratio of 70% or more and less than 90%)
g (Brassica campestris L.) effect on crop grade (Brassica campestris L.): 3 (Herbicidal ratio of 40% or more and less than 70%)
e (Triticum aestivum) effect on crop grade (Triticum aestivum): 1 (Herbicidal ratio of 5% or more and less than 20%)
M (Abutilon theophrasti) herbicidal effect grade (Abutilon theophrasti): 3 (Herbicidal ratio of 40% or more and less than 70%)
P (Stellaria media) herbicidal effect grade (Stellaria media; [6]): 5 (Herbicidal ratio of 90% or more (almost completely withered))
K (Lolium multiflorum Lam.) herbicidal effect grade (Lolium multiflorum Lam.): 1 (Herbicidal ratio of 5% or more and less than 20%)
L (Apera spica-venti.) herbicidal effect grade (Apera spica-venti.): 1 (Herbicidal ratio of 5% or more and less than 20%)
N (Amaranthus retroflexus) herbicidal effect grade (Amaranthus retroflexus): 4 (Herbicidal ratio of 70% or more and less than 90%)
Q (Galium spurium) herbicidal effect grade (Galium spurium): 0 (Herbicidal ratio of 5% or less (almost no effect))
I (Avena fatua) herbicidal effect grade (Avena fatua): 2 (Herbicidal ratio of 20% or more and less than 40%)
F (Digitaria ciliaris) herbicidal effect grade (Digitaria ciliaris): 4 (Herbicidal ratio of 70% or more and less than 90%)
G (Setaria viridis) herbicidal effect grade (Setaria viridis): 4 (Herbicidal ratio of 70% or more and less than 90%)
O (Chenopodium album) herbicidal effect grade (Chenopodium album): 5 (Herbicidal ratio of 90% or more (almost completely withered))
J (Alopecurus myosuroides) herbicidal effect grade (Alopecurus myosuroides): 1 (Herbicidal ratio of 5% or more and less than 20%)
H (Echinochloa crus-galli var. crus-galli) herbicidal effect grade [4]: 5 (Herbicidal ratio of 90% or more (almost completely withered))

Cc1nnc(NC(=O)c2ccc(C(F)(F)F)n3c(N(C)C(C)C)nnc23)o1 [1-132]
a: transplanted Oryza sativa (effect on crop grade) [1]: 2 (Herbicidal ratio of 20% or more and less than 40%)
c (Zea mays) effect on crop grade (Zea mays): 2 (Herbicidal ratio of 20% or more and less than 40%)
f (Beta vulgaris ssp. vulgaris) effect on crop grade [2]: 5 (Herbicidal ratio of 90% or more (almost completely withered))
d (Glycine max) effect on crop grade (Glycine max): 3 (Herbicidal ratio of 40% or more and less than 70%)
g (Brassica campestris L.) effect on crop grade (Brassica campestris L.): 4 (Herbicidal ratio of 70% or more and less than 90%)
e (Triticum aestivum) effect on crop grade (Triticum aestivum): 1 (Herbicidal ratio of 5% or more and less than 20%)
R (Veronica persica) herbicidal effect grade (Veronica persica; [6]): 4 (Herbicidal ratio of 70% or more and less than 90%)
M (Abutilon theophrasti) herbicidal effect grade (Abutilon theophrasti): 4 (Herbicidal ratio of 70% or more and less than 90%)
K (Lolium multiflorum Lam.) herbicidal effect grade (Lolium multiflorum Lam.): 1 (Herbicidal ratio of 5% or more and less than 20%)
L (Apera spica-venti.) herbicidal effect grade (Apera spica-venti.): 2 (Herbicidal ratio of 20% or more and less than 40%)
N (Amaranthus retroflexus) herbicidal effect grade (Amaranthus retroflexus): 3 (Herbicidal ratio of 40% or more and less than 70%)
Q (Galium spurium) herbicidal effect grade (Galium spurium): 2 (Herbicidal ratio of 20% or more and less than 40%)
I (Avena fatua) herbicidal effect grade (Avena fatua): 1 (Herbicidal ratio of 5% or more and less than 20%)
F (Digitaria ciliaris) herbicidal effect grade (Digitaria ciliaris): 4 (Herbicidal ratio of 70% or more and less than 90%)
G (Setaria viridis) herbicidal effect grade (Setaria viridis): 3 (Herbicidal ratio of 40% or more and less than 70%)
O (Chenopodium album) herbicidal effect grade (Chenopodium album): 5 (Herbicidal ratio of 90% or more (almost completely withered))
J (Alopecurus myosuroides) herbicidal effect grade (Alopecurus myosuroides): 1 (Herbicidal ratio of 5% or more and less than 20%)
H (Echinochloa crus-galli var. crus-galli) herbicidal effect grade [4]: 5 (Herbicidal ratio of 90% or more (almost completely withered))

COC1CCC(c2nnc3c(C(=O)Nc4nnc(C)o4)ccc(C(F)(F)F)n23)CC1 (stereo not shown) [1-169]
a: transplanted Oryza sativa (effect on crop grade) [1]: 0 (Herbicidal ratio of 5% or less (almost no effect))
c: effect on crop, Zea mays (Zea mays; [7]): 1 (Herbicidal ratio of 5% or more and less than 20%)
f: effect on crop, Beta vulgaris ssp. vulgaris [2, 7]: 5 (Herbicidal ratio of 90% or more (almost completely withered))
d: effect on crop, Glycine max (Glycine max; [7]): 5 (Herbicidal ratio of 90% or more (almost completely withered))
g: effect on crop, Brassica campestris L. (Brassica campestris L.; [7]): 0 (Herbicidal ratio of 5% or less (almost no effect))
e: effect on crop, Triticum aestivum (Triticum aestivum; [7]): 1 (Herbicidal ratio of 5% or more and less than 20%)
b: effect on crop, directly sowed Oryza sativa [3, 7]: 0 (Herbicidal ratio of 5% or less (almost no effect))
R: herbicidal effect on Veronica persica (Veronica persica; [7]): 4 (Herbicidal ratio of 70% or more and less than 90%)
M: herbicidal effect on Abutilon theophrasti (Abutilon theophrasti; [7]): 3 (Herbicidal ratio of 40% or more and less than 70%)
P: herbicidal effect on Stellaria media (Stellaria media; [7]): 5 (Herbicidal ratio of 90% or more (almost completely withered))
K: herbicidal effect on Lolium multiflorum Lam. (Lolium multiflorum Lam.; [7]): 1 (Herbicidal ratio of 5% or more and less than 20%)
L: herbicidal effect on Apera spica-venti. (Apera spica-venti.; [7]): 1 (Herbicidal ratio of 5% or more and less than 20%)
Q: herbicidal effect on Galium spurium (Galium spurium; [7]): 1 (Herbicidal ratio of 5% or more and less than 20%)
I: herbicidal effect on Avena fatua (Avena fatua; [7]): 1 (Herbicidal ratio of 5% or more and less than 20%)
F: herbicidal effect on Digitaria ciliaris (Digitaria ciliaris; [7]): 4 (Herbicidal ratio of 70% or more and less than 90%)
G: herbicidal effect on Setaria viridis (Setaria viridis; [7]): 3 (Herbicidal ratio of 40% or more and less than 70%)
O: herbicidal effect on Chenopodium album (Chenopodium album; [7]): 5 (Herbicidal ratio of 90% or more (almost completely withered))
J: herbicidal effect on Alopecurus myosuroides (Alopecurus myosuroides; [7]): 1 (Herbicidal ratio of 5% or more and less than 20%)
H: herbicidal effect on Echinochloa crus-galli var. crus-galli [4, 7]: 5 (Herbicidal ratio of 90% or more (almost completely withered))
